Source: ChEMBL document CHEMBL1149069, “SB-202742, a novel beta-lactamase inhibitor isolated from Spondias mombin” (J Nat Prod, 1994)
Activity calls are given as the source filed them. The rule behind the calls is not given here.

Target: Beta-lactamase TEM-2 (Escherichia coli) (UniProt P62593)
Test: Inhibition of Escherichia coli W3110 beta-lactamase TEM2 assessed as inhibition of nitrocefin hydrolysis at 1 ug/ml pre-incubated for 5 mins by microtiter plate assay

CC/C=C\C/C=C\C/C=C\CCCCCCCc1cccc(O)c1C(=O)O
Activity: Active
